From US20170227545A1, “REACTIVITY-BASED SCREENING FOR NATURAL PRODUCT DISCOVERY” (THE BOARD OF TRUSTEES OF THE UNIVERSITY OF ILLINOIS, priority 2014, published 2017)
≈ marks a conversion by molar mass, not a printed value. Like-named read-outs stand apart in the source and are kept apart here.

Tests used:
Assay type in all cases: cell-based
Talaromyces stipitatus = experiment: Antifungal activity, microbroth dilution MIC
fungal strains = experiment: Growth inhibition, panel of fungal strains; settings: result in words
[1] = test system: Pseudomonas putida KT2440; experiment: Antibiotic activity, microbroth dilution MIC
[2] = test system: Listeria monocytogenes strain 4b F2365; experiment: Antibiotic activity, microbroth dilution MIC
[3] = test system: Staphylococcus aureus USA300 (methicillin-resistant); experiment: Antibiotic activity, microbroth dilution MIC
Aspergillus niger = experiment: Antifungal activity, microbroth dilution MIC
[4] = test system: Enterococcus faecalis U503 (vancomycin-resistant); experiment: Antibiotic activity, microbroth dilution MIC
Fusarium virguliforme = experiment: Antifungal activity, microbroth dilution MIC
Saccharomyces cerevisiae = experiment: Antifungal activity, microbroth dilution MIC
[5] = test system: Bacillus anthracis strain Sterne; experiment: microbe, parasite or virus in culture
[6] = test system: Neisseria sicca ATCC 29256; experiment: Antibiotic activity, microbroth dilution MIC
[7] = test system: Bacillus subtilis strain 168; experiment: Antibiotic activity, microbroth dilution MIC
E. coli MC4100 = experiment: Antibiotic activity, microbroth dilution MIC; settings: 37° C. 12 h
[8] = test system: Gram-negative (Proteobacteria) organisms; settings: all tested Gram-negatives, result in words
[9] = test system: Gram-positive (Firmicutes) bacteria; settings: several Gram-positive bacteria, result in words
[10] = microbroth dilution, 30° C. 36 h
[11] = microbroth dilution, 37° C. 12 h

For cyclothiazomycin B [reference compound], the MIC (Talaromyces stipitatus; [10]) was 64 µg/mL, the “growth inhibitory action toward fungal strains” value (fungal strains) was “little to no activity” and the MIC ([1]; 37° C. 12 h) was >64 µg/mL. For the same compound, the MIC ([2]; 37° C. 12 h) was 8 µg/mL, the MIC [3, 11] was 4 µg/mL and the MIC (Aspergillus niger; [10]) was >64 µg/mL. For the same compound, the MIC [4, 11] was 32 µg/mL, the MIC (Fusarium virguliforme; microbroth dilution, 30° C. 60 h) was 64 µg/mL and the MIC (Saccharomyces cerevisiae; [10]) was 64 µg/mL. For the same compound, the MIC [5, 11] was 1 µg/mL, the MIC ([6]; 37° C. 12 h) was >64 µg/mL and the MIC ([7]; 37° C. 12 h) was 2 µg/mL. For the same compound, the MIC (E. coli MC4100; Escherichia coli) was 64 µg/mL and the “activity against Gram-negative (Proteobacteria) organisms” value [8] was “little to no activity”.
With `C=C1NC(=O)CNC(=O)[C@H](CCCCN)NC(=O)[C@@]2(C)NC(=O)/C(=C/C)NC(=O)[C@@H]3CSC(=N3)[C@H](CC(N)=O)NC(=O)c3ccc(nc3[C@@H](C)NC(=O)[C@@H]3CCCN3C1=O)-c1nc(cs1)C1=N[C@@H](CS1)C(=O)NC(=C)c1nc(cs1)-c1nc(cs1)C1=N[C@H](CS1)C(=O)N[C@H](C(=O)O)CS2` [cyclothiazomycin C] the MIC (Talaromyces stipitatus; 36 h) was > 64 µg/mL, the “growth inhibitory action toward fungal strains” value (fungal strains) was “none was observed” and the MIC ([1]; KT2440, 37° C. 12 h, read-out: MIC) was > 64 µg/mL. The MIC ([2]; 4BF2365, 37° C. 12 h, read-out: MIC) was 16 µg/mL (≈ 10.8 µM), the MIC ([3]; USA300, 12 h) was 16 µg/mL (≈ 10.8 µM) and the “growth inhibitory action toward Gram-positive (Firmicutes) bacteria” value [9] was “exhibited growth inhibitory action”. For the same compound, the MIC (Aspergillus niger; 36 h) was > 64 µg/mL, the MIC ([4]; 12 h) was 32 to 64 µg/mL (≈ 21.5 to 43 µM) and the MIC (Fusarium virguliforme; 60 h) was > 64 µg/mL. For the same compound, the MIC (Saccharomyces cerevisiae; 36 h) was > 64 µg/mL, the MIC ([5]; 12 h) was 1 µg/mL (≈ 0.673 µM) and the MIC ([6]; ATCC29256, 37° C. 12 h, read-out: MIC) was > 64 µg/mL. The MIC ([7]; 168, 37° C. 12 h, read-out: MIC) was 4 µg/mL (≈ 2.69 µM), the MIC (E. coli MC4100; MC4100, Escherichia coli, read-out: MIC) was > 64 µg/mL and the “activity against Gram-negative (Proteobacteria) organisms” value [8] was “inactive”.
